Measurements published in patent publication US6602824B1, “Herbicidal composition and a method of using a naturally-occurring organic compound as a herbicide” (Greener Pastures Development Corp., priority 1999, dated 2003).
Where a name gives a salt, the structure may show the parent alone.

Legend:
[1] = tested on: rats; experiment: LD50, single oral dose administered to rats; settings: orally administered to rats; versus sodium chloride
[2] = tested on: rats; settings: orally administered to rats; cited from earlier work

SMILES: C[N+](C)(C)CC(=O)[O-] [glycine betaine, 1-carboxy-N,N,N-trimethylmethanaminium inner salt]
- toxicity relative to ordinary table salt, as reflected by the oral rat LD50 [1]: more than three times less toxic
- LD50 [2]: about 11,204 mg per kilogram of rat body we
